Experimental data as given in US20260226071A1, “2, 4-DIANILINOPYRIMIDINE-BASED AURORA-A KINASE SELECTIVE DEGRADATION INDUCING COMPOUNDS” (UPPTHERA, INC., priority 2023, published 2026).

Columns and labels:
Aurora kinase A (AURKA) = molecular target: T1, Aurora kinase A (AURKA) (Homo sapiens, UniProt O14965); test: Luciferase assay for AURKA in HeLa LgBit (AURKA-HiBit KI) cell line; assay type: cell-based; details: HeLa LgBit (AURKA-HiBit KI) cells, measured after 12 hours
T1 construct: endogenous in cells; host or cells: HeLa LgBit (AURKA-HiBit KI), CRISPR/Cas9 knock-in at the endogenous AURKA locus
T1 sequence (O14965 1-403): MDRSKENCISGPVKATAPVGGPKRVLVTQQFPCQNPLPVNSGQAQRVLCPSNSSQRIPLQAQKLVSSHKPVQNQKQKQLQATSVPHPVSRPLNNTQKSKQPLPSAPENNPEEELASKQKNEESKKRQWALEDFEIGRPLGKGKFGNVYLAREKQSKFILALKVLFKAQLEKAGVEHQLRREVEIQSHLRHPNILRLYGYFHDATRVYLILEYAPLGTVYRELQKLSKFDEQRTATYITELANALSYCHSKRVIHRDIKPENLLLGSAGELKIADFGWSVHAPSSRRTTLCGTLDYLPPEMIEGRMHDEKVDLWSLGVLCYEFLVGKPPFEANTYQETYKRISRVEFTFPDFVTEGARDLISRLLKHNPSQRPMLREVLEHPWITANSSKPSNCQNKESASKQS
How it was run: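 HeLa cells stably expressing LgBit, with HiBit knocked in at the C-terminus of endogenous AURKA; 3×10^4 cells seeded, 18 h, then Endurazine substrate 2 h. Compounds tested at 10 nM or 100 nM; luminescence read at 470-480 nm after 12 h as real-time read-out.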

NCI-H446 cell line = test: Cell viability assay for NCI-H446 cell line; assay type: cell-based; details: Homo sapiens, NCI-H446, 120 h; H446 cells, 5 days culture, EZ-Cytox; read-out: IC50 value (Level)
How it was run: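 H446 cells seeded 24 h before treatment with compound in 3-fold dilutions, 1000 to 0.15 nM, then cultured 5 days at 37 °C, 5% CO2 in RPMI 1640/10% FBS. Viability read with EZ-Cytox (4 h) as absorbance at 450 nm.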

Row | SMILES | luminescence value (Level) (Aurora kinase A (AURKA); 10 nM compound) | luminescence value (Level) (Aurora kinase A (AURKA); 100 nM compound) | IC50 (NCI-H446 cell line) [nM]
1 | O=C1CCC(Nc2ccc(N3CCN(CCN4CCC(NC(=O)c5ccc(Nc6ncc(F)c(Nc7ccc(C(=O)Nc8ccccc8Cl)cc7)n6)cc5)CC4)CC3)cc2)C(=O)N1 (stereo not drawn) [Compound 73, N-(2-chlorophenyl)-4-((2-((4-((1-(2-(4-(4-((2,6-dioxopiperidin-3-yl)amino)phenyl)piperazin-1-yl)ethyl)piperidin-4-yl)carbamoyl)phenyl)amino)-5-fluoropyrimidin-4-yl)amino)benzamide] | A (A is <0.3) | A (A is <0.2) | 100 to 150
2 | O=C1CCC(c2ccc(N3CCN(CCC4CCN(NC(=O)c5ccc(Nc6ncc(F)c(Nc7ccc(NC(=O)c8ccccc8F)cc7)n6)cc5)CC4)CC3)cc2)C(=O)N1 (stereo not drawn) [Compound 104, N-[4-[[2-[4-[[4-[2-[4-[4-(2,6-dioxo-3-piperidyl)phenyl]piperazin-1-yl]ethyl]-1-piperidyl]carbamoyl]anilino]-5-fluoro-pyrimidin-4-yl]amino]phenyl]-2-fluoro-benzamide] | A (A is <0.3) | A (A is <0.2) | < 50
3 | O=C1CCC(c2ccc(N3CCC(CN4CCC5(CC4)CC(NC(=O)c4ccc(Nc6ncc(F)c(Nc7ccc(C(=O)Nc8ccccc8Cl)cc7)n6)cc4)C5)CC3)c(F)c2)C(=O)N1 (stereo not drawn) [Compound 23, N-(2-chlorophenyl)-4-((2-((4-((7-((1-(4-(2,6-dioxopiperidin-3-yl)-2-fluorophenyl)piperidin-4-yl)methyl)-7-azaspiro[3.5]nonan-2-yl)carbamoyl)phenyl)amino)-5-fluoropyrimidin-4-yl)amino)benzamide] | B (B is 0.3 to 0.5) | A (A is <0.2) | < 50
4 | COc1cc(N2CCN(CCC3CCN(NC(=O)c4ccc(Nc5ncc(F)c(Nc6ccc(C(=O)Nc7ccccc7Cl)cc6)n5)cc4)CC3)CC2)c(F)cc1NC1CCC(=O)NC1=O (stereo not drawn) [Compound 117, N-(2-chlorophenyl)-4-((2-((4-((4-(2-(4-(4-((2,6-dioxopiperidin-3-yl)amino)-2-fluoro-5-methoxyphenyl)piperazin-1-yl)ethyl)piperidin-1-yl)carbamoyl)phenyl)amino)-5-fluoropyrimidin-4-yl)amino)benzamide] | A (A is <0.3) | A (A is <0.2) | < 50
5 | O=C1CCC(c2ccc(N3CCN(CCN4CC(NC(=O)c5ccc(Nc6ncc(F)c(Nc7ccc(C(=O)Nc8ccccc8Cl)cc7)n6)cc5)C4)CC3)cc2)C(=O)N1 (stereo not drawn) [Compound 65, N-(2-chlorophenyl)-4-((2-((4-((1-(2-(4-(4-(2,6-dioxopiperidin-3-yl)phenyl)piperazin-1-yl)ethyl)azetidin-3-yl)carbamoyl)phenyl)amino)-5-fluoropyrimidin-4-yl)amino) benzamide] | B (B is 0.3 to 0.5) | A (A is <0.2) | 50 to 100
6 | C[C@@H](CN1CCN(c2ccc(C3CCC(=O)NC3=O)cc2)CC1)C1CCN(NC(=O)c2ccc(Nc3ncc(F)c(Nc4ccc(C(=O)Nc5ccccc5Cl)cc4)n3)cc2)CC1 (stereo partly drawn) [Compound 79, N-(2-chlorophenyl)-4-((2-((4-((4-((2R)-1-(4-(4-(2,6-dioxopiperidin-3-yl)phenyl)piperazin-1-yl)propan-2-yl)piperidin-1-yl)carbamoyl)phenyl)amino)-5-fluoropyrimidin-4-yl)amino)benzamide] | A (A is <0.3) | A (A is <0.2) | < 50
7 | O=C1CC[C@H](Nc2ccc(N3CCN(CCC4CCN(NC(=O)c5ccc(Nc6ncc(F)c(Nc7ccc(C(=O)Nc8ccccc8Cl)cc7)n6)cc5)CC4)CC3)c(F)c2)C(=O)N1 [Compound 94, (S)—N-(2-chlorophenyl)-4-((2-((4-((4-(2-(4-(4-((2,6-dioxopiperidin-3-yl)amino)-2-fluorophenyl)piperazin-1-yl)ethyl)piperidin-1-yl)carbamoyl)phenyl)amino)-5-fluoropyrimidin-4-yl)amino)benzamide] | A (A is <0.3) | A (A is <0.2) | < 50
